pIC50: −log10 of the molar value. Like-named read-outs stand apart in the source and are kept apart here.
Tests used:
[1] = test system: p-ERK in NCI-H441 cells (KRAS G12V mutation); test: Cell p-ERK assay (HTRF) in NCI-H441 cells; format: cell-based, human; details: NCI-H441 cells, 3 h compound incubation, HTRF p-ERK T202/Y204, read-out: H441 p-ERK IC50
Method in brief: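 Phospho-ERK inhibition measured by HTRF after a 3 h compound exposure (0.1% DMSO) in overnight-seeded cells; IC50 derived from dose-response fitting.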

[2] = test system: p-ERK in AsPC-1 cells (KRAS G12D mutation); test: Cell p-ERK assay (HTRF) in AsPC-1 cells; format: cell-based, human; details: AsPC-1 cells, 3 h compound incubation, HTRF p-ERK T202/Y204, read-out: AsPC-1 p-ERK IC50
Procedure: AsPC-1 cells were purchased from ATCC, Cat. No. CRL-1682: NCI-H441 cells were purchased from ATCC, Cat. No. HTB-174: RPMI-1640 medium was purchased from Gibco, Cat. No. I1875-093: FBS was purchased from Gibco, Cat. No. 10099-141C: penicillin/streptomycin double-antibiotic solution (PS) was purchased from Gibco, Cat. No. 15140-122: trypsin (containing EDTA) was purchased from Gibco, Cat. No. 25200-072; DMSO was purchased from VWRAMRESCO, Cat. No. 0231-500ML; 96-well cell culture plates were purchased from Corning, Cat. No. 3599: white-bottomed, opaque 96-well plates were purchased from Cisbio, Cat. No. 66PL96025; Advance ERK phospho-T202/Y204 kit was purchased from Cisbio, Cat. No. 64AERPEH; cell counter was purchased from CHEMOMETEC, model: NC-200; microplate reader was purchased from PerkinElmer, model: EnVision.
AsPC-1, a human pancreatic cancer cell strain endogenously containing a KRAS^G12D mutation, was cultured in a complete medium containing RPMI-1640+10% FBS+1% PS. NCI-H441, a human non-small cell lung cancer cell strain endogenously containing a KRAS^G12V mutation, was cultured in a complete medium containing RPMI-1640+10% FBS+1% PS.
The cells were digested with trypsin (containing EDTA), collected in their corresponding complete media, and counted. The density of the cell suspensions was adjusted with their corresponding complete media, and 10000 AsPC-1 cells or 20000 NCI-H441 cells per well were seeded into a 96-well cell culture plate, with the volume of the medium in each well being 80 μL.
The cell culture plate was incubated in an incubator at 37° C. with 5% CO2 overnight. A series of 3.16-fold gradient dilutions of a 1000- compound stock solution were prepared with DMSO, and then diluted 200-fold with the complete medium described above to give 5′ compound stock solutions. On the day after cell seeding, 20 μL of the 5× compound stock solution was added to each cell culture well. As a result, the final concentration of the compound in the cell culture well became 1×, and the DMSO content in the well was 0.1%. In addition to the compound-treated wells described above, cell-containing DMSO control wells were also set. A complete medium containing 0.5% DMSO was added at 20 μL/well. After the mixture was well mixed, the culture plate was incubated in the incubator at 37° C. with 5% CO2 for another 3 h. The medium was then removed from the culture wells, and 50 μL of cell lysis buffer (from Advance ERK phospho-T202,Y204 kit) was added to each well. The mixture was well mixed and incubated for 30 min. Then, 16 μL of the mixture was transferred to a white-bottomed, opaque 96-well assay plate, and separately, 16 μL of cell lysis buffer was added to additional wells (serving as blank wells) in the assay plate. After the transfer was completed, 4 μL of p-ERK HTRF antibody mixture (from Advance ERK phospho-T202/Y204 kit) was added to each well of the assay plate, followed by a 4-hour incubation. The HTRF signal values (RLU) were then measured using a microplate reader, and the inhibition rate of the compound against p-ERK levels was calculated as follows: IR (%)=(RLUDMSO−RLUcompound)/(RLUDMSO−RLUblank)×100%, where RLUDMSO is the average HTRF signal value from the DMSO control well samples, RLUblank is the average HTRF signal value from the blank well samples, and RLUcompound is the HTRF signal value from the compound-treated well samples. Using an XLfit software, the IR (%) values were plotted against the logarithm of the compound concentrations, and the dose-response curves were fitted using the four-parameter method to calculate the IC50 values.

Structure (SMILES) | pIC50 [1] | pIC50 [2] | pIC50 ([1]; Homo sapiens, NCI-H441, 3 h) | pIC50 ([2]; Homo sapiens, ASPC1, 3 h)
CCn1c(-c2cc(OCCN3CCS(=O)(=O)CC3)cnc2[C@H](C)OC)c2c3cc(ccc31)-c1csc(n1)C[C@H](NC(=O)[C@H]1[C@H](C)[C@@H]1C)C(=O)N1CCC[C@H](N1)C(=O)OCC(C)(C)C2 (atropisomer, axis not shown; (Sa)) [Compound Z470, (1r,2R,3S)—N-((6^3S,4S,Z)—(Sa)-1^2-(5-(2-(1,1-dioxidothiomorpholino)ethoxy)-2-((S)-1-methoxyethyl)pyridin-3-yl)-1^1-ethyl-10,10-dimethyl-5,7-dioxo-6^1,6^2,6^3,6^4,6^5,6^6-hexahydro-1^1H-8-oxa-2(4,2)-thiazola-1(5,3)-indola-6(1,3)-pyridazinacycloundecaphane-4-yl)-2,3-dimethylcyclopropane-1-carboxamide] | 7.16 | 7.45 | – | –
C=C1CCN2CCN(c3cnc([C@H](C)OC)c(-c4c5c6cc(ccc6n4CC)-c4csc(n4)C[C@H](NC(=O)[C@H]4[C@H](C)[C@@H]4C)C(=O)N4CCC[C@H](N4)C(=O)OCC(C)(C)C5)c3)C[C@H]2C1 (atropisomer, axis not shown; (Sa)) [Compound Z549, (1r,2R,3S)—N-((6^3S,4S,Z)-1^1-ethyl-(Sa)-1^2-(2-((S)-1-methoxyethyl)-5-((R)-8-methyleneoctahydro-2H-pyrido[1,2-a]pyrazin-2-yl)pyridin-3-yl)-10,10-dimethyl-5,7-dioxo-6^1,6^2,6^3,6^4,6^5,6^6-hexahydro-1′H-8-oxa-2(4,2)-thiazola-1(5,3)-indola-6(1,3)-pyridazinacycloundecaphane-4-yl)-2,3-dimethylcyclopropane-1-carboxamide] | 7.57 | 7.49 | – | –
CCn1c(-c2cc(OCCN3CCOCC34CC4)cnc2[C@H](C)OC)c2c3cc(ccc31)-c1csc(n1)C[C@H](NC(=O)C1[C@@H](C)[C@H]1C)C(=O)N1CCC[C@H](N1)C(=O)OCC1(CC1)C2 (stereo partly drawn) [Compound Z385, (1r,2R,3S)—N-((3′S,4′S,Z)-2′-(5-(2-(7-oxa-4-azaspiro[2,5]octan-4-yl)ethoxy)-2-((S)-1-methoxyethyl)pyridin-3-yl)-1-ethyl-5′,7′-dioxospiro[cyclopropane-1,10′-8-oxa-2(4,2)-thiazola-1(5,3)-indola-6(1,3)-pyridazinacycloundecaphan]-4′-yl)-2,3-dimethylcyclopropane-1-carboxamide] | – | – | 7.68 | 7.48

Second part, the compound after the results:

pIC50 [1] | pIC50 [2] | pIC50 ([1]; Homo sapiens, NCI-H441, 3 h) | pIC50 ([2]; Homo sapiens, ASPC1, 3 h) | Structure (SMILES)
9.20 | – | – | 8.91 | CCn1c(-c2cc(C#CC(=O)N3CCCOCC3)cnc2[C@H](C)OC)c2c3cc(ccc31)-c1csc(n1)C[C@H](NC(=O)[C@H]1[C@H](C)[C@@H]1C)C(=O)N1CCC[C@H](N1)C(=O)OCC(C)(C)C2 [Compound Z810A, (1r,2R,3S)—N-((6^3S,4S,Z)-1^2-ethyl-1^2-(5-(3-(1,4-oxazepan-4-yl)-3-oxoprop-1-yn-1-yl)-2-((S)-1-methoxyethyl)pyridin-3-yl)-10,10-dimethyl-5,7-dioxo-6^1,6^2,6^3,6^4,6^5,6^6hexahydro-1^1H-8-oxa-2(4,2)-thiazola-1(5,3)-indola-6(1,3)-pyridazinacycloundecaphane-4-yl)-2,3-dimethylcyclopropane-1-carboxamide]
– | – | 8.67 | 8.45 | CCn1c(-c2cc(C#CCN3CCC3)cnc2[C@H](C)OC)c2c3cc(ccc31)-c1csc(n1)C[C@H](NC(=O)CC1CC1)C(=O)N1CCC[C@H](N1)C(=O)OCC(C)(C)C2 [Compound Z999, N-((6^3S,4S,Z)-1^2-(5-(3-(azetidin-1-yl)prop-1-yn-1-yl)-2-((S)-1-methoxyethyl)pyridin-3-yl)-1^1-ethyl-10,10-dimethyl-5,7-dioxo-6^1,6^2,6^3,6^4,6^5,6^6-hexahydro-1^1H-8-oxa-2(4,2)-thiazola-1(5,3)-indola-6(1,3)-pyridazinacycloundecaphane-4-yl)-2-cyclopropylacetamide]

From US20260234165A1, “MACROCYCLIC COMPOUNDS, PREPARATION METHOD THEREFOR, AND USE THEREOF” (GENFLEET THERAPEUTICS (SHANGHAI) INC., priority 2004, published 2026)
